According to patent publication US6696249B1, “Method for screening for inhibitors and activators of type III secretion machinery in gram-negative bacteria” (priority 1998, dated 2004):

Experiments:
virA-lacZ fusion = assay type: cell-based, Shigella flexneri
Description: (§1) All Shigella flexneri strains identified in Table I are derivatives of the wild-type strain M90T (Sansonetti et al., 1982). Bacteria were grown in Luria-Bertani (LB) medium or tryptic soy (TCS) broth. Antibiotics were used at the following concentrations: ampicillin, 100 μg/ml; kanamycin, 30 μg/ml; and streptomycin, 100 μg/ml. Congo red (SERVA, Heidelberg, Germany) was used to induce secretion by bacteria growing in LB medium.
Secretion of IpaB and IpaC is enhanced when bacteria grow in the presence of Congo red (Parsot et al, 1995). To investigate the effect of Congo red on virA transcription, we assayed the β-galactosidase activity in strain SF1001 (virA-lacZ ipaD^+) after growth in the presence of various concentrations of Congo red.
(§2) To investigate kinetics of activation of the virA promoter, Congo red (100 μg/ml) was added to the growth medium during the exponential phase of growth of derivatives of the wild-type and mxiD strains carrying the virA-lacZ fusion. Samples were then collected at 5 min intervals and assayed for β-galactosidase activity.
(§3) The β-galactosidase activity present in bacteria growing in laboratory media was assayed by using the substrate o-nitro-phenyl-β-D-galactoside (ONPG) as described (Platt et al, 1972). The β-galactosidase activity present in intracellular bacteria was assayed by using the substrate 4-methyl-umbelliferyl-β-D-galactoside (MUG) as described (Klarsfeld et al., 1994). Fluorescence was measured by using a Dynatec apparatus, with 365 nm excitation and 450 nm emission wavelengths. Activities were computed as fluorescence units per hour per bacterium; four fluorescence units were equivalent to one Miller unit and all results are presented in Miller units.

virA-lacZ mxiD = assay: virA-lacZ transcriptional fusion in mxiD (secretion deficient) strain SF1012, β-galactosidase activity in vitro; assay type: cell-based, Shigella flexneri
Description: as §1
To determine whether regulation of virA transcription was dependent on the type III secretion machinery, we compared the β-galactosidase activities produced by the virA-lacZ fusion in derivatives of wild-type (SF1001) and mxiD (SF1012) strains during growth in the presence of Congo red and we compared the production of VirA in ipaD and mxiD ipaD strains.
as §2, §3

ipaH9.8-lacZ fusion = assay: ipaH9.8-lacZ transcriptional fusion, β-galactosidase activity in vitro; assay type: cell-based, Shigella flexneri; conditions: ipaD+ strain
ipaH7.8-lacZ fusion = assay: ipaH7.8-lacZ transcriptional fusion, β-galactosidase activity in vitro; assay type: cell-based, Shigella flexneri; conditions: ipaD+ strain
ipaH4.5-lacZ fusion = assay: ipaH4.5-lacZ transcriptional fusion, β-galactosidase activity in vitro; assay type: cell-based, Shigella flexneri; conditions: ipaD+ strain
ipaH1.4-lacZ fusion = assay: ipaH1.4-lacZ transcriptional fusion, β-galactosidase activity in vitro; assay type: cell-based, Shigella flexneri; conditions: ipaD+ strain
ipaA-lacZ fusion = assay: ipaA-lacZ transcriptional fusion, β-galactosidase activity in vitro; assay type: cell-based, Shigella flexneri
icsB-lacZ fusion = assay: icsB-lacZ transcriptional fusion, β-galactosidase activity in vitro; assay type: cell-based, Shigella flexneri
mxiD-lacZ fusion = assay: mxiD-lacZ transcriptional fusion, β-galactosidase activity in vitro; assay type: cell-based, Shigella flexneri
ipgD-lacZ fusion = assay: ipgD-lacZ transcriptional fusion, β-galactosidase activity in vitro; assay type: cell-based, Shigella flexneri
[1] = test system: ipaH9.8-, ipaH7.8-, ipaH4.5-, and ipaH1.4-lacZ fusions; assay: ipaH-lacZ fusions taken together, β-galactosidase activity in vitro; assay type: cell-based, Shigella flexneri; conditions: 100 μg/ml of Congo red
[2] = test system: icsB-, ipaA-, ipgD-, and mxiD-lacZ fusions; assay: entry region lacZ fusions taken together, transcription in vitro; assay type: cell-based, Shigella flexneri; conditions: Congo red in the growth medium
[3] = test system: Secretion of IpaB and IpaC; conditions: Parsot et al, 1995; cited from earlier work
[4] = ipaD+ strain grown in presence of Congo red

For Nc1c(/N=N/c2ccc(-c3ccc(/N=N/c4cc(S(=O)(=O)O)c5ccccc5c4N)cc3)cc2)cc(S(=O)(=O)O)c2ccccc12 [Congo red], the “Concentration of Congo red at which virA-lacZ transcription reaches a plateau” value (virA-lacZ fusion) was “about 100 μg/ml”, the “Transcription of the virA-lacZ fusion at low dye concentrations” value (virA-lacZ fusion; SF1001, concentrations of dye up to 20 μg/ml) was “low” and the “Ratio li: activity with Congo red versus without Congo red” value (virA-lacZ fusion; virA-lacZ, ipaD+ strain) was 17. For the same molecule, the “β-galactosidase activity, ipaD+ + CR” value (virA-lacZ fusion; virA-lacZ, ipaD+ strain grown in presence of 100 μg/ml Congo red, mean of at least three experiments) was 280 Miller units, the “Time after addition of the dye at which an increase in β-galactosidase specific activity was detected” value (virA-lacZ fusion; wild-type derivative, Congo red 100 μg/ml added in exponential phase, samples at 5 min intervals) was 10 min and the “Transcriptional activation of the virA-lacZ fusion after addition of the dye” value (virA-lacZ mxiD; mxiD mutant derivative, Congo red 100 μg/ml added in exponential phase) was “no transcriptional activation”. The “Increase in β-galactosidase activity on growth with Congo red” value (virA-lacZ mxiD; mxiD strain carrying virA-lacZ, Congo red in growth medium) was “did not lead to an increase”, the “Ratio li: activity with Congo red versus without Congo red” value (virA-lacZ mxiD; virA-lacZ mxiD strain) was 1.1 and the “β-galactosidase activity, ipaD+ + CR” value (virA-lacZ mxiD; virA-lacZ mxiD strain grown in presence of Congo red) was 18 Miller units. For the same molecule, the “Ratio li: activity with Congo red versus without Congo red” value (ipaH9.8-lacZ fusion) was 12, the “β-galactosidase activity, ipaD+ + CR” value (ipaH9.8-lacZ fusion; 100 μg/ml Congo red) was 325 Miller units and the “Ratio li: activity with Congo red versus without Congo red” value (ipaH7.8-lacZ fusion) was 12. For the same molecule, the “β-galactosidase activity, ipaD+ + CR” value (ipaH7.8-lacZ fusion; 100 μg/ml Congo red) was 235 Miller units, the “Ratio li: activity with Congo red versus without Congo red” value (ipaH4.5-lacZ fusion) was 3.5 and the “β-galactosidase activity, ipaD+ + CR” value (ipaH4.5-lacZ fusion; 100 μg/ml Congo red) was 110 Miller units. For the same molecule, the “Ratio li: activity with Congo red versus without Congo red” value (ipaH1.4-lacZ fusion) was 5.1, the “β-galactosidase activity, ipaD+ + CR” value (ipaH1.4-lacZ fusion; 100 μg/ml Congo red) was 270 Miller units and the “Ratio li: activity with Congo red versus without Congo red” value (ipaA-lacZ fusion; ipaD+ strain) was 0.8. The “β-galactosidase activity, ipaD+ + CR” value (ipaA-lacZ fusion; [4]) was 390 Miller units, the “Ratio li: activity with Congo red versus without Congo red” value (icsB-lacZ fusion; ipaD+ strain) was 1.0 and the “β-galactosidase activity, ipaD+ + CR” value (icsB-lacZ fusion; [4]) was 285 Miller units. The “Ratio li: activity with Congo red versus without Congo red” value (mxiD-lacZ fusion; ipaD+ strain) was 1.2, the “β-galactosidase activity, ipaD+ + CR” value (mxiD-lacZ fusion; [4]) was 320 Miller units and the “Ratio li: activity with Congo red versus without Congo red” value (ipgD-lacZ fusion; ipaD+ strain) was 1.1. The “β-galactosidase activity, ipaD+ + CR” value (ipgD-lacZ fusion; [4]) was 475 Miller units, the “Times more β-galactosidase activity after growth with Congo red” value [1] was 3-12 times and the “Effect of Congo red in growth medium on transcription” value [2] was “not affected”. The “Secretion of IpaB and IpaC when bacteria grow in the presence of Congo red” value [3] was “enhanced”.
